Data set [1] addresses T1, oestrone sulphatase (Homo sapiens, UniProt P08842).
T1 sequence (P08842 22-583): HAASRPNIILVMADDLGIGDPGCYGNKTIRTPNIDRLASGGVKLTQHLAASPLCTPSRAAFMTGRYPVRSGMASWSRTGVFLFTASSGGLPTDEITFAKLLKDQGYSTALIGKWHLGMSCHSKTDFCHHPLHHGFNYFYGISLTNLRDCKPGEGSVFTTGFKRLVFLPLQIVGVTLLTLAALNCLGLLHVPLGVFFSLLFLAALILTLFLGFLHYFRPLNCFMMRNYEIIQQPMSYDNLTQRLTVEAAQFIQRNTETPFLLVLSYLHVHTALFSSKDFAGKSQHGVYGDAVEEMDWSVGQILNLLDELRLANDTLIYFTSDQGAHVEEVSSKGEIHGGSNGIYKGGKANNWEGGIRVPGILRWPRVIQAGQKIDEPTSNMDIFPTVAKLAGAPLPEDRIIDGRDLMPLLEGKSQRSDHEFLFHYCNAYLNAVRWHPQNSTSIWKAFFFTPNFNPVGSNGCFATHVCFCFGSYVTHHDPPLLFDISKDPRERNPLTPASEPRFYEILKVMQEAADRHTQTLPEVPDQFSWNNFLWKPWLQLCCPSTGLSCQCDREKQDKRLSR
Nature of the data set: Oestrone sulphatase inhibition in placental microsomes by flavanoid sulphamates. The class given is biochemical.

For data set [2], the target named is T1, oestrone sulphatase.
Where [3] appears, read: concentration tested 1 mM (so in the source).
The mark [4] stands for this setting: concentration tested 10 mM (so in the source).
Where [5] appears, read: concentration tested 25 mM (so in the source).
Where [6] appears, read: concentration tested 50 mM (so in the source).
Where [7] appears, read: concentration tested 100 mM (so in the source).

Like-named read-outs stand apart in the source and are kept apart here.

The record followed here is patent US7098199B2 (Sterix Limited, priority 1991, dated 2006).

Turning to “5-hydroxy-flavone-7-sulphamate [5-hydroxy flavone-7-sulphamate]”, the entries for the “% INHIBITION Sulphatase” value in data set [1] (1 μM) and in data set [1] (10 μM) were 8% and 21%, respectively.
As to `C=CCc1cc2c(cc1OS(N)(=O)=O)CC[C@@H]1[C@@H]2CC[C@]2(C)C(=O)CC[C@@H]12` [2-allyl EMATE], the “% Inhibition (Mean) Placental Microsomes” value came to 45.6% in data set [2] (setting [3]); 65.4% in data set [2] (setting [4]); 75.3% in data set [2] (setting [5]); 86.6% in data set [2] (setting [6]); 89.6% in data set [2] (setting [7]).
Consider `COc1cc2c(cc1OS(N)(=O)=O)CC[C@@H]1[C@@H]2CC[C@]2(C)C(=O)CC[C@@H]12` [2-methoxy EMATE], for which the “% Inhibition (Mean) Placental Microsomes” value in data set [2] (setting [4]) is 99.0%; in data set [2] (setting [6]), 99.7%; in data set [2] (setting [7]) it was 99.7%.
With `CCCc1cc2c(cc1OS(N)(=O)=O)CC[C@@H]1[C@@H]2CC[C@]2(C)C(=O)CC[C@@H]12` [2-n-propyl EMATE], the “% Inhibition (Mean) Placental Microsomes” value in data set [2] (setting [3]) turned out to be 21.9%; in data set [2] (setting [4]) it was 43.2%; in data set [2] (setting [5]), 47.5%; in data set [2] (setting [6]), 61.1%; in data set [2] (setting [7]) it was 69.2%.
For `C[C@]12CC[C@@H]3c4cc([N+](=O)[O-])c(OS(N)(=O)=O)cc4CC[C@H]3[C@@H]1CCC2=O` [2-nitro EMATE], the “% Inhibition (Mean) Placental Microsomes” value amounted to 44.5% in data set [2] (concentration tested 0.05 mM (so in the source)), 93.9% in data set [2] (concentration tested 0.5 mM (so in the source)), 99.0% in data set [2] (concentration tested 5 mM (so in the source)) and 99.4% in data set [2] (setting [6]).
Consider `C=CCc1c(OS(N)(=O)=O)ccc2c1CC[C@@H]1[C@@H]2CC[C@]2(C)C(=O)CC[C@@H]12` [4-allyl EMATE], for which the “% Inhibition (Mean) Placental Microsomes” value in data set [2] (setting [3]) was determined as 29.1%; in data set [2] (setting [4]), 54.2%; in data set [2] (setting [5]), 59.0%; in data set [2] (setting [6]), 65.1%; in data set [2] (setting [7]), 71.9%.
The corresponding values for `CCCc1c(OS(N)(=O)=O)ccc2c1CC[C@@H]1[C@@H]2CC[C@]2(C)C(=O)CC[C@@H]12` [4-n-propyl EMATE] are 13.7%, 10.2%, 15.7%, 16.3% and 23.7%.
For the molecule `NS(=O)(=O)Oc1ccc(C2CC(=O)c3c(O)cc(O)cc3O2)cc1` (stereo not drawn) [5,7-dihydroxy flavanone 4′-sulphamate, 5.7-Dihydroxyflavanone 4′-O-sulphamate], the “% INHIBITION Sulphatase” value in data set [1] (0.1 μM) was 30.4%; in data set [1] (1 μM), 79.1%; in data set [1] (10 μM) it was 98.1%; in data set [1] (10 μM, listed as 5,7-dihydroxy flavanone-4′-sulphamate), 98%.
In the case of `COc1ccc(-c2coc3cc(OS(N)(=O)=O)cc(O)c3c2=O)cc1` [5-Hydroxy-4′-methoxyisoflavone 7-O-sulphamate], the “% INHIBITION Sulphatase” value is on record as 1% in data set [1] (1 μM) and 50.6% in data set [1] (10 μM).
For the molecule flavone-6-sulphamate, the “% INHIBITION Sulphatase” value in data set [1] (1 μM) is 26.8%; in data set [1] (10 μM), 89.5%.
flavone-7-sulphamate: the “% INHIBITION Sulphatase” value in data set [1] (50 μM) came out at 56.3%; in data set [1] (100 μM), 75.3%.
